The source made the active and inactive calls. The rule behind the calls is not given here.
Tested on: rodent carcinogenicity bioassays, tumor incidence
Assay: CCRIS carcinogenicity studies
Details: Species: RAT, Dose: 0, Dose: 0
In short: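 NCI-built, expert-reviewed records of carcinogenicity and related test outcomes (mutagenicity, tumor promotion/inhibition) compiled from published and report sources, historical span 1985-2011, not updated.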

Measured: carcinogen call

CCNC(=O)N(CC)N=O
active: Strain/Sex: F344/FEMALE, Route: GAVAGE, 20, 40 UMOL/WK IN CORN OIL/ETHYL ACETATE (2: 1) FOR 30 WK (LOW DOSE) OR 22.5 WK (HIGH DOSE) FOR TOTAL DOSES OF 0, 0.6, 20, 40 UMOL/WK IN CORN OIL/ETHYL ACETATE (2: 1) FOR 30 WK (LOW DOSE) OR 22.5 WK (HIGH DOSE) FOR TOTAL DOSES OF 0, 0.6, Tumor Site: Type of Lesion: MAMMARY GLAND: TUMOR active; positive | Strain/Sex: F344/FEMALE, Route: INTRAVESICULAR, 3 MG 2/WK FOR 30 WK (STUDY DURATION: LIFETIME), Tumor Site: Type of Lesion: MAMMARY GLAND: TUMOR, LUNG: TUMOR, ZYMBAL GLAND: TUMOR, Tumor Site: Type of Lesion: MAMMARY GLAND: TUMOR, LUNG: TUMOR, ZYMBAL GLAND: TUMOR active; positive | Strain/Sex: F344/FEMALE, Route: ORAL, 20, 40 UMOL/WK IN DRINKING WATER FOR 30 WK FOR TOTAL DOSES OF 0, 0.6, 1.2 MMOL (STUDY DURATION: LIFETIME), 20, 40 UMOL/WK IN DRINKING WATER FOR 30 WK FOR TOTAL DOSES OF 0, 0.6, 1.2 MMOL (STUDY DURATION: LIFETIME), Tumor Site: Type of Lesion: LUNG: TUMOR, MAMMARY GLAND: TUMOR, UTERUS: TUMOR, Tumor Site: Type of Lesion: LUNG: TUMOR, MAMMARY GLAND: TUMOR, UTERUS: TUMOR active; positive | Strain/Sex: F344/MALE, Route: GAVAGE, 20, 40 UMOL/WK IN CORN OIL/ETHYL ACETATE (2: 1) FOR 30 WK FOR TOTAL DOSES OF 0, 0.6, 1.2 MMOL (STUDY DURATION: LIFETI, 20, 40 UMOL/WK IN CORN OIL/ETHYL ACETATE (2: 1) FOR 30 WK FOR TOTAL DOSES OF 0, 0.6, 1.2 MMOL (STUDY DURATION: LIFETI, Tumor Site: Type of Lesion: LUNG: TUMOR, TESTIS: MESOTHELIOMA, NERVOUS SYSTEM: TUMOR, ZYMBAL GLAND: TUMOR, COLON: TUMOR, Tumor Site: Type of Lesion: LUNG: TUMOR, TESTIS: MESOTHELIOMA, NERVOUS SYSTEM: TUMOR, ZYMBAL GLAND: TUMOR, COLON: TUMOR active; positive | Strain/Sex: F344/MALE, Route: ORAL, 20, 40 UMOL/WK IN DRINKING WATER FOR 30 WK FOR TOTAL DOSES OF 0, 0.6, 1.2 MMOL (STUDY DURATION: LIFETIME), 20, 40 UMOL/WK IN DRINKING WATER FOR 30 WK FOR TOTAL DOSES OF 0, 0.6, 1.2 MMOL (STUDY DURATION: LIFETIME), Tumor Site: Type of Lesion: LUNG: TUMOR, TESTIS: MESOTHELIOMA, COLON: TUMOR, SKIN: TUMOR, Tumor Site: Type of Lesion: LUNG: TUMOR, TESTIS: MESOTHELIOMA, COLON: TUMOR, SKIN: TUMOR active; positive
